In patent US7473790B2 (Pfizer Inc., priority 2003, dated 2009):

Each compound was assayed against T1, HCV polymerase (Hepatitis C virus genotype 1b, UniProt P26663) (assay: HCV polymerase primer/template-directed transcription assay (32P-GTP incorporation, filter binding)). Details: recombinant HCV polymerase; 30 minutes at 30° C.; concentration giving 50% inhibition of polymerase-directed transcription; read-out: IC50.
T1 construct: 2.5 pmoles (0.15 μg) HCV polymerase protein in a final volume of 75 μL
T1 sequence (P26663 2420-3010): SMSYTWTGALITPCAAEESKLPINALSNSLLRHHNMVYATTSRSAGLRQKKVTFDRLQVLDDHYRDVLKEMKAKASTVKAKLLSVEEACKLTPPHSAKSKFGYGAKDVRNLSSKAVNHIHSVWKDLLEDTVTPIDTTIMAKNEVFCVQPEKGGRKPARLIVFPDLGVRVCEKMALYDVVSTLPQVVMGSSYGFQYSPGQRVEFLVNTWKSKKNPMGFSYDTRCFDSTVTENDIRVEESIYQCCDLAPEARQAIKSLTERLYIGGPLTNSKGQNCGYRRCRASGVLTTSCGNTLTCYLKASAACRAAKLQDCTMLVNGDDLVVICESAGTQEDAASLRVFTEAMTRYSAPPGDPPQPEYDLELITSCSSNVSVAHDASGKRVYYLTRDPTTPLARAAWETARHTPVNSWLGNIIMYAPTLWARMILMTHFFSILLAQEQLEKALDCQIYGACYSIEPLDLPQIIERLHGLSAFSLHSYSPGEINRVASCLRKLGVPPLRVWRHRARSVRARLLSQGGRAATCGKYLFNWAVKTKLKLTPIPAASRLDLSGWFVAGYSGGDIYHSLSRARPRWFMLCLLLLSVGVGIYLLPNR
Format: biochemical
Protocol: The compounds described herein were tested for activity with HCV polymerase. Recombinant HCV polymerase was tested for its ability to perform primer/template-directed transcription in assays that contained 30 mM tris-HCl pH 7.2, 10 mM MgCl2, 20 mM NaCl, 1 mM Dithiothreitol (DTT), 0.05% Tween-20, 1% glycerol, 5 pmoles biotin-dG12 (primer), 0.5 pmoles poly(rC)300 (template), 1 μM GTP, 0.1-0.3 uCi α-^32P-GTP, and 2.5 pmoles (0.15 μg) HCV polymerase protein in a final volume of 75 μL. Reactions were initiated by addition of enzyme and incubated 30 minutes at 30° C. Reactions were stopped by addition of 33 mM EDTA, and polynucleotide products were collected by filtration through Diethylaminoethyl (DE) Filtermat papers (Wallac). Unincorporated triphosphate was removed by washing the filters with 5% dibasic sodium phosphate. The filters were counted in a Packard Tri-Lux Microbeta scintillation counter (Packard Bioscience, Meriden, Conn.). Compounds to be tested were added at various concentrations, e.g., 1 μm to 50 μm, from stocks in 10% DMSO-water (final DMSO is 1% in reaction).
IC50 values were estimated from the primary cpm data (collected in triplicate) using the formula: cpm (I)=cpm(no inhibitor)(1−([I]/([I]+IC50))). An IC50 value represents the concentration (in μM) of a compound that provides 50% inhibition of polymerase-directed transcription in the above assay. A percent inhibition value is expressed for a compound where it was impractical to calculate an IC50 value with available data. If the IC50 estimated by the above equation was less than 200 nM, it was recalculated using the following equation, which takes into account the enzyme concentration (30 nM) in the assay: cpm(I)=cpm(no inhibitor)(1−((((I+IC50+30e−9)−sqrt(((I+IC50+30e−9)^2)−4×30e−9×I)))/((2)(30e−9))). Curve fitting was performed using the program KaleidaGraph (Synergy Software, Reading, Pa.).
Compound `CC(C)Oc1ccc(CCC2(C3CCCC3)CC(=O)CC(=O)O2)cc1F` (single isomer, unassigned) [J(2), 6-cyclopentyl-6-[2-(3-fluoro-4-isopropoxyphenyl)ethyl]dihydro-2H-pyran-2,4(3H)-dione] has an IC50 of 3900 nM. `Cc1cc(C)n2nc(CC3=C(O)CC(CCc4ccc(OC(C)C)c(F)c4)(C4CCCC4)OC3=O)nc2n1` (single isomer, unassigned) [J(3), 6-cyclopentyl-3-[(5,7-dimethyl[1,2,4]triazolo[1,5-a]pyrimidin-2-yl)methyl]-6-[2-(3-fluoro-4-isopropoxyphenyl)ethyl]-4-hydroxy-5,6-dihydro-2H-pyran-2-one] showed an IC50 of 5 nM. For `Cc1cc(C)n2nc(CC3=C(O)CC(CCc4ccc(OC(C)C)c(F)c4)(C4CCCC4)OC3=O)nc2n1` (single isomer, unassigned) [J(4), 6-cyclopentyl-3-[(5,7-dimethyl[1,2,4]triazolo[1,5-a]pyrimidin-2-yl)methyl]-6-[2-(3-fluoro-4-isopropoxyphenyl)ethyl]-4-hydroxy-5,6-dihydro-2H-pyran-2-one], the IC50 was 19 nM. `CCc1cccc(CCC2(C3CCCC3)CC(=O)CC(=O)O2)c1` (single isomer, unassigned) [J(5), 6-Cyclopentyl-6-[2-(3-ethyl-phenyl)-ethyl]-dihydro-pyran-2,4-dione] showed an IC50 of 1900 nM. For `CCc1cccc(CCC2(C3CCCC3)CC(=O)CC(=O)O2)c1` (single isomer, unassigned) [J(6), 6-Cyclopentyl-6-[2-(3-ethyl-phenyl)-ethyl]-dihydro-pyran-2,4-dione], the IC50 was 1200 nM. `CCc1cccc(CCC2(C3CCCC3)CC(O)=C(Cc3nc4nc(C)cc(C)n4n3)C(=O)O2)c1` (single isomer, unassigned) [J(7), 6-Cyclopentyl-3-(5,7-dimethyl-[1,2,4]triazolo[1,5-a]pyrimidin-2-ylmethyl)-6-[2-(3-ethyl-phenyl)-ethyl]-4-hydroxy-5,6-dihydro-pyran-2-one] gave an IC50 of 10 nM. With `CCc1cccc(CCC2(C3CCCC3)CC(O)=C(Cc3nc4nc(C)cc(C)n4n3)C(=O)O2)c1` (single isomer, unassigned) [J(8), 6-Cyclopentyl-3-(5,7-dimethyl-[1,2,4]triazolo[1,5-a]pyrimidin-2-ylmethyl)-6-[2-(3-ethyl-phenyl)-ethyl]-4-hydroxy-5,6-dihydro-pyran-2-one] the IC50 was 14 nM. `Cc1cnc2nc(CC3C(=O)CC(CCc4ccc(C(C)(C)C#N)c(F)c4)(C4CCCC4)OC3=O)nn2c1` (single isomer, unassigned; (+)) [A(109), (+)-2-(4-{2-[2-Cyclopentyl-5-(6-methyl-[1,2,4]triazolo[1,5-a]pyrimidin-2-ylmethyl)-4,6-dioxo-tetrahydro-pyran-2-yl]-ethyl}-2-fluoro-phenyl)-2-methyl-propionitrile] was tested, and the IC50 was 4 nM. In the case of `CC(C)(C#N)c1ccc(CCC2(C3CCCC3)CC(O)=C(Cc3nc4ncc(Cl)cn4n3)C(=O)O2)cc1F` (single isomer, unassigned; (+)) [A(248), (+)-2-(4-{2-[5-(6-Chloro-[1,2,4]triazolo[1,5-a]pyrimidin-2-ylmethyl)-2-cyclopentyl-4,6-dioxo-tetrahydro-pyran-2-yl]-ethyl}-2-fluoro-phenyl)-2-methyl-propionitrile], the IC50 is reported as 16 nM. `CC(C)(C#N)c1c(F)cc(CCC2(C3CCCC3)CC(O)=C(Cc3nc4ncc(Cl)cn4n3)C(=O)O2)cc1F` (single isomer, unassigned; (+)) [A(259), (+)-2-(4-{2-[5-(6-Chloro-[1,2,4]triazolo[1,5-a]pyrimidin-2-ylmethyl)-2-cyclopentyl-4-hydroxy-6-oxo-3,6-dihydro-2H-pyran-2-yl]-ethyl}-2,6-difluoro-phenyl)-2-methyl-propionitrile] gave an IC50 of 6 nM. Compound `CCC(C#N)(CC)c1c(F)cc(CCC2(C3CCCC3)CC(O)=C(Cc3nc4ncc(C)cn4n3)C(=O)O2)cc1F` (single isomer, unassigned; (+)) [A(263), (+)-2-(4-{2-[2-Cyclopentyl-4-hydroxy-5-(6-methyl-[1,2,4]triazolo[1,5-a]pyrimidin-2-ylmethyl)-6-oxo-3,6-dihydro-2H-pyran-2-yl]-ethyl}-2,6-difluoro-phenyl)-2-ethyl-butyronitrile] has an IC50 of 7 nM. `CCC(C#N)(CC)c1ccc(CCC2(C3CCCC3)CC(O)=C(Cc3nc4ncc(Cl)cn4n3)C(=O)O2)cc1F` (single isomer, unassigned; (+)) [A(266), (+)-2-(4-{2-[5-(6-Chloro-[1,2,4]triazolo[1,5-a]pyrimidin-2-ylmethyl)-2-cyclopentyl-4-hydroxy-6-oxo-3,6-dihydro-2H-pyran-2-yl]-ethyl}-2-fluoro-phenyl)-2-ethyl-butyronitrile] gave an IC50 of 19 nM. Compound `Cc1cnc2nc(CC3C(=O)CC(CCc4ccc(C(C)(C)C#N)c(F)c4)(C4CCCC4)OC3=O)nn2c1` (single isomer, unassigned; (-)) [A(110), (−)-2-(4-{2-[2-Cyclopentyl-5-(6-methyl-[1,2,4]triazolo[1,5-a]pyrimidin-2-ylmethyl)-4,6-dioxo-tetrahydro-pyran-2-yl]-ethyl}-2-fluoro-phenyl)-2-methyl-propionitrile] has an IC50 of 1 nM. `CCc1cc(CCC2(C3CCCC3)CC(O)=C(Cc3nc4nc(C)cc(C)n4n3)C(=O)O2)c(OC)cc1O` (single isomer, unassigned; (-)) [A(155), (−)-6-Cyclopentyl-3-(5,7-dimethyl-[1,2,4]triazolo[1,5-a]pyrimidin-2-ylmethyl)-6-[2-(5-ethyl-4-hydroxy-2-methoxy-phenyl)-ethyl]-4-hydroxy-5,6-dihydro-pyran-2-one] showed an IC50 of 3 nM. Work on `CC(C)(C#N)c1ccc(CCC2(C3CCCC3)CC(O)=C(Cc3nc4ncc(Cl)cn4n3)C(=O)O2)cc1F` (single isomer, unassigned; (-)) [A(249), (−)-2-(4-{2-[5-(6-Chloro-[1,2,4]triazolo[1,5-a]pyrimidin-2-ylmethyl)-2-cyclopentyl-4,6-dioxo-tetrahydro-pyran-2-yl]-ethyl}-2-fluoro-phenyl)-2-methyl-propionitrile] yielded an IC50 of 19 nM. In the case of `Cc1cnc2nc(CC3=C(O)CC(CCc4cc(F)c(C(C)(C)C#N)c(F)c4)(C4CCCC4)OC3=O)nn2c1` (single isomer, unassigned; (-)) [A(258), (−)-2-(4-{2-[2-Cyclopentyl-4-hydroxy-5-(6-methyl-[1,2,4]triazolo[1,5-a]pyrimidin-2-ylmethyl)-6-oxo-3,6-dihydro-2H-pyran-2-yl]-ethyl}-2,6-difluoro-phenyl)-2-methyl-propionitrile], the IC50 is reported as 2 nM. With `CC(C)(C#N)c1c(F)cc(CCC2(C3CCCC3)CC(O)=C(Cc3nc4ncc(Cl)cn4n3)C(=O)O2)cc1F` (single isomer, unassigned; (-)) [A(260), (−)-2-(4-{2-[5-(6-Chloro-[1,2,4]triazolo[1,5-a]pyrimidin-2-ylmethyl)-2-cyclopentyl-4-hydroxy-6-oxo-3,6-dihydro-2H-pyran-2-yl]-ethyl}-2,6-difluoro-phenyl)-2-methyl-propionitrile] the IC50 was 7 nM. With `CCC(C#N)(CC)c1c(F)cc(CCC2(C3CCCC3)CC(O)=C(Cc3nc4ncc(C)cn4n3)C(=O)O2)cc1F` (single isomer, unassigned; (-)) [A(264), (−)-2-(4-{2-[2-Cyclopentyl-4-hydroxy-5-(6-methyl-[1,2,4]triazolo[1,5-a]pyrimidin-2-ylmethyl)-6-oxo-3,6-dihydro-2H-pyran-2-yl]-ethyl}-2,6-difluoro-phenyl)-2-ethyl-butyronitrile] the IC50 was 4 nM.
